Key:
Format in all cases: in vivo
[1] = system: Echinochloa crus-galli (ECHCG); experiment: Example B pre-emergence herbicidal activity, glasshouse pot test; conditions: 312 h, evaluated after 13 days, read-out: Pre-emergence activity ECHCG (100=total damage to plant; 0=no damage to plant); for pest or weed control at 250 g/ha: rate 250 g/ha
Summary of the method: (§1)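 After sowing in standard soil, pots were cultivated 1 day (pre-emergence) or 8 days (post-emergence), then treated with an aqueous spray of the formulated active ingredient (acetone/water 50:50, 0.5% Tween 20). Phytotoxicity was assessed on a 0–100 scale at 13 days.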

[2] = system: Amaranthus retroflexus (AMARE); experiment: as above; conditions: 312 h, evaluated after 13 days, read-out: Pre-emergence activity AMARE (100=total damage to plant; 0=no damage to plant); for pest or weed control at 250 g/ha: rate 250 g/ha
Summary of the method: as §1

[3] = system: Solanum nigrum (SOLNI); experiment: as above; conditions: 312 h, rate 1000 g/ha, evaluated after 13 days, read-out: Pre-emergence activity SOLNI (100=total damage to plant; 0=no damage to plant)
Summary of the method: as §1

[4] = system: Setaria faberi (SETFA); experiment: as above; conditions: 312 h, evaluated after 13 days, read-out: Pre-emergence activity SETFA (100=total damage to plant; 0=no damage to plant); for pest or weed control at 250 g/ha: rate 250 g/ha
Summary of the method: as §1

[5] = system: Alopecurus myosuroides (ALOMY); experiment: as above; conditions: 312 h, evaluated after 13 days, read-out: Pre-emergence activity ALOMY (100=total damage to plant; 0=no damage to plant); for pest or weed control at 250 g/ha: rate 250 g/ha
Summary of the method: as §1

[6] = system: Avena fatua (AVEFA); experiment: as above; conditions: 312 h, evaluated after 13 days, read-out: Pre-emergence activity AVEFA (100=total damage to plant; 0=no damage to plant); for pest or weed control at 250 g/ha: rate 250 g/ha
Summary of the method: as §1

[7] = system: Echinochloa crus-galli (ECHCG); experiment: Example B post-emergence herbicidal activity, glasshouse pot test; conditions: 312 h, evaluated after 13 days, read-out: Post-emergence activity ECHCG (100=total damage to plant; 0=no damage to plant); for pest or weed control at 250 g/ha: rate 250 g/ha
Summary of the method: as §1

[8] = system: Amaranthus retroflexus (AMARE); experiment: as above; conditions: 312 h, evaluated after 13 days, read-out: Post-emergence activity AMARE (100=total damage to plant; 0=no damage to plant); for pest or weed control at 250 g/ha: rate 250 g/ha
Summary of the method: as §1

[9] = system: Solanum nigrum (SOLNI); experiment: as above; conditions: 312 h, rate 1000 g/ha, evaluated after 13 days, read-out: Post-emergence activity SOLNI (100=total damage to plant; 0=no damage to plant)
Summary of the method: as §1

[10] = system: Setaria faberi (SETFA); experiment: as above; conditions: 312 h, evaluated after 13 days, read-out: Post-emergence activity SETFA (100=total damage to plant; 0=no damage to plant); for pest or weed control at 250 g/ha: rate 250 g/ha
Summary of the method: as §1

[11] = system: Alopecurus myosuroides (ALOMY); experiment: as above; conditions: 312 h, evaluated after 13 days, read-out: Post-emergence activity ALOMY (100=total damage to plant; 0=no damage to plant); for pest or weed control at 250 g/ha: rate 250 g/ha
Summary of the method: as §1

[12] = system: Avena fatua (AVEFA); experiment: as above; conditions: 312 h, evaluated after 13 days, read-out: Post-emergence activity AVEFA (100=total damage to plant; 0=no damage to plant); for pest or weed control at 250 g/ha: rate 250 g/ha
Summary of the method: as §1

Row | Compound | pest or weed control at 250 g/ha [1] [%] | pest or weed control at 250 g/ha [2] [%] | pest or weed control at 250 g/ha [4] [%] | pest or weed control at 250 g/ha [5] [%] | pest or weed control at 250 g/ha [6] [%] | pest or weed control at 250 g/ha [7] [%] | pest or weed control at 250 g/ha [8] [%] | pest or weed control at 250 g/ha [10] [%] | pest or weed control at 250 g/ha [11] [%] | pest or weed control at 250 g/ha [12] [%] | also measured
1 | CCc1ccc(-c2ccc(Cl)cc2)cc1C1=C(OC(=O)C(C)OC)C(C)(C)OC(C)(C)C1=O [Compound D-19] | – | – | – | – | – | – | – | – | – | – | pest or weed control at 1000 g/ha ([1]; rate 1000 g/ha): 100%; pest or weed control at 1000 g/ha ([2]; rate 1000 g/ha): 0%; pest or weed control at 1000 g/ha [3]: 0%; pest or weed control at 1000 g/ha ([4]; rate 1000 g/ha): 100%; pest or weed control at 1000 g/ha ([5]; rate 1000 g/ha): 70%; pest or weed control at 1000 g/ha ([6]; rate 1000 g/ha): 20%; pest or weed control at 1000 g/ha ([7]; rate 1000 g/ha): 100%; pest or weed control at 1000 g/ha ([8]; rate 1000 g/ha): 0%; pest or weed control at 1000 g/ha [9]: 0%; pest or weed control at 1000 g/ha ([10]; rate 1000 g/ha): 100%; pest or weed control at 1000 g/ha ([11]; rate 1000 g/ha): 90%; pest or weed control at 1000 g/ha ([12]; rate 1000 g/ha): 80%
2 | CCc1ccc(-c2ccc(I)cc2)cc1C1=C(O)C(C)(C)OC(C)(C)C1=O [Compound A-101] | 100 | 0 | 100 | 70 | 100 | 100 | 0 | 100 | 100 | 100 | –
3 | CCc1ccc(-c2ccc(Cl)cc2)cc1C1=C(O)[C@]2(C)O[C@@H](CC2COC)C1=O (some centres unmarked) [Compound A-122] | 90 | 0 | 100 | 40 | 100 | 100 | 40 | 100 | 80 | 50 | –
4 | C#Cc1ccc(-c2ccc(CC)c(C3=C(O)C(C)(C)OC(C)(C)C3=O)c2)cc1 [Compound A-98] | 90 | 50 | 90 | 0 | 0 | 100 | 30 | 100 | 50 | 70 | –
5 | Cc1cc(C)c(-c2ccc(Cl)cc2)c(C)c1C1=C(O)C(C)(C)OC(C)(C)C1=O [Compound A-92] | 50 | 0 | 60 | 10 | 0 | 100 | 0 | 90 | 50 | 0 | –
6 | CCOC[C@]12CC[C@H](O1)C(=O)C(c1cc(-c3ccc(Cl)c(Cl)c3)ccc1CC)=C2O (single isomer, unassigned) [Compound A-129] | 40 | 0 | 90 | 20 | 30 | 90 | 0 | 80 | 70 | 80 | –

Reference: patent publication US8680012B2, “4-phenyl-pyrane-3,5-diones,4-phenyl-thiopyrane-3,6-diones and cyclohexanetriones as novel herbicides” (Syngenta Crop Protection LLC, priority 2006, dated 2014)
